Values joined by “and” are separate entries in the source; they are usually repeats but may differ in a detail not shown here. Equal entries are not always repeated. “Also recorded” adds a separate entry of the source. Where two headings read alike, the source gives them in different places.
How the values were obtained:
advanced solid tumors = experiment: Objective tumor response; format: in vivo, human
serum Pi = experiment: Post hoc hyperphosphatemia assessment with phosphate-binding therapy; format: in vivo, human
[1] = for RAUC0–last / RCmax: ratio
[2] = tested on: patients with advanced solid tumors; conditions: global phase I study, 64% Caucasian patients; cited from earlier work
clinical = conditions: human, plasma, oral; for AUC(0-inf): AUC0–inf; for AUC(0-t): AUC0–last
[3] = tested on: cancer cell lines harboring various FGFR gene abnormalities; conditions: cited from earlier work
[4] = FGFR‐abnormal patients with GC, All patients (n = 21)
[5] = FGFR‐abnormal patients with GC, FGRF2 CN <10 (n = 10)
[6] = FGFR‐abnormal patients with GC, FGRF2 CN ≥10 (n = 11)
[7] = Futibatinib regimen QD (n = 43)
[8] = Futibatinib regimen TIW (n = 39)
[9] = With FGF/FGFR abnormalities (n = 52)
[10] = Without FGF/FGFR abnormalities or unknown (n = 30)
[11] = 40 QD patients treated with phosphate-binding therapy
[12] = Week 3 (day 21), QD 20 mg, n = 2, mean
[13] = Week 3, TIW 36 mg, n = 3, mean (standard deviation)
[14] = Week 3, TIW 56 mg, n = 6, mean (standard deviation)
[15] = Week 3, TIW 80 mg, n = 5, mean (standard deviation)
[16] = Week 3, TIW 120 mg, n = 3, mean (standard deviation)
[17] = Week 3, TIW 160 mg, n = 4, mean (standard deviation)
[18] = 16 mg, Day 1, QD 16 mg, n = 3, mean (standard deviation)
[19] = 16 mg, Week 3, TIW 16 mg, n = 1
[20] = 20 mg, Day 1, QD 20 mg, n = 7, mean (standard deviation)
[21] = 20 mg, Week 3 (day 21), QD 20 mg, n = 2, mean
[22] = 24 mg, Week 3, TIW 24 mg, n = 1

C=CC(=O)N1CC[C@H](n2nc(C#Cc3cc(OC)cc(OC)c3)c3c(N)ncnc32)C1 [futibatinib]
Best response CR (advanced solid tumors; [4]): 0 (0.0) n (%) | Best response NE (advanced solid tumors; [4]): 2 (9.5) n (%) | Best response PD (advanced solid tumors; [4]): 12 (57.1) n (%) | Best response PR (advanced solid tumors; [4]): 4 (19.0) n (%) | Best response SD (advanced solid tumors; [4]): 3 (14.3) n (%) | DCR (95% CI) (advanced solid tumors; [4]): 33.3 (14.6–57.0) % | ORR (95% CI) (advanced solid tumors; [4]): 19.0 (5.4–41.9) % | Best response CR (advanced solid tumors; [5]): 0 (0.0) n (%) | Best response NE (advanced solid tumors; [5]): 2 (20.0) n (%) | Best response PD (advanced solid tumors; [5]): 7 (70.0) n (%) | Best response PR (advanced solid tumors; [5]): 0 (0.0) n (%) | Best response SD (advanced solid tumors; [5]): 1 (10.0) n (%) | DCR (95% CI) (advanced solid tumors; [5]): 10.0 (0.3–44.5) % | ORR (95% CI) (advanced solid tumors; [5]): 0 (0–30.8) % | Best response CR (advanced solid tumors; [6]): 0 (0.0) n (%) | Best response NE (advanced solid tumors; [6]): 0 (0.0) n (%) | Best response PD (advanced solid tumors; [6]): 5 (45.5) n (%) | Best response PR (advanced solid tumors; [6]): 4 (36.4) n (%) | Best response SD (advanced solid tumors; [6]): 2 (18.2) n (%) | DCR (95% CI) (advanced solid tumors; [6]): 54.5 (23.4–83.3) % | ORR (95% CI) (advanced solid tumors; [6]): 36.4 (10.9–69.2) % | Best response CR (advanced solid tumors; [7]): 0 (0.0) n (%) | Best response NE (advanced solid tumors; [7]): 4 (9.3) n (%) | Best response PD (advanced solid tumors; [7]): 23 (53.5) n (%) | Best response PR (advanced solid tumors; [7]): 5 (11.6) n (%) | Best response SD (advanced solid tumors; [7]): 11 (25.6) n (%) | DCR (95% CI) (advanced solid tumors; [7]): 37.2 (23.0–53.3) % | ORR (95% CI) (advanced solid tumors; [7]): 11.6 (3.9–25.1) % | Best response CR (advanced solid tumors; [8]): 0 (0.0) n (%) | Best response NE (advanced solid tumors; [8]): 5 (12.8) n (%) | Best response PD (advanced solid tumors; [8]): 23 (59.0) n (%) | Best response PR (advanced solid tumors; [8]): 1 (2.6) n (%) | Best response SD (advanced solid tumors; [8]): 10 (25.6) n (%) | DCR (95% CI) (advanced solid tumors; [8]): 28.2 (15.0–44.9) % | ORR (95% CI) (advanced solid tumors; [8]): 2.6 (0.1–13.5) % | Patients with best response of confirmed PR (advanced solid tumors; GC patients with FGFR2 CN <10): 0/10 | Patients with best response of confirmed PR (advanced solid tumors; GC patients with FGFR2 CN ≥10): 4/11 | Best response CR (advanced solid tumors; Total (n = 82)): 0 (0.0) n (%) | Best response NE (advanced solid tumors; Total (n = 82)): 9 (11.0) n (%) | Best response PD (advanced solid tumors; Total (n = 82)): 46 (56.1) n (%) | Best response SD (advanced solid tumors; Total (n = 82)): 21 n (%) and 21 (25.6) n (%) | DCR (95% CI) (advanced solid tumors; Total (n = 82)): 32.9 (22.9–44.2) % | ORR (95% CI) (advanced solid tumors; Total (n = 82)): 7.3 (2.7–15.2) % | Best response CR (advanced solid tumors; [9]): 0 (0.0) n (%) | Best response NE (advanced solid tumors; [9]): 6 (11.5) n (%) | Best response PD (advanced solid tumors; [9]): 27 (51.9) n (%) | Best response PR (advanced solid tumors; [9]): 6 (11.5) n (%) | Best response SD (advanced solid tumors; [9]): 13 (25.0) n (%) | DCR (95% CI) (advanced solid tumors; [9]): 36.5 (23.6–51.0) % | ORR (95% CI) (advanced solid tumors; [9]): 11.5 (4.4–23.4) % | Best response CR (advanced solid tumors; [10]): 0 (0.0) n (%) | Best response NE (advanced solid tumors; [10]): 3 (10.0) n (%) | Best response PD (advanced solid tumors; [10]): 19 (63.3) n (%) | Best response PR (advanced solid tumors; [10]): 0 (0.0) n (%) | Best response SD (advanced solid tumors; [10]): 8 (26.7) n (%) | DCR (95% CI) (advanced solid tumors; [10]): 26.7 (12.3–45.9) % | ORR (95% CI) (advanced solid tumors; [10]): 0 (0–11.6) % | Patients with confirmed PR (advanced solid tumors; patients with GC evaluated for response): 4/21 | Futibatinib dose interruption (serum Pi; [11]): 30% | Futibatinib dose reduction (serum Pi; [11]): 12.5% | Safety concerns regardless of presence or absence of phosphate-binding therapy (serum Pi; futibatinib QD): No safety concerns were identified | Patients achieving the target serum Pi level (serum Pi; futibatinib dose reduction after starting phosphate-binding therapy (15 patients)): 86.7% | Hyperphosphatemia events leading to discontinuation of futibatinib (serum Pi; in vivo): not leading to futibatinib discontinuation; also recorded: none of the hyperphosphatemia events led to discontinuation of futibatinib | Patients achieving the target serum Pi level (serum Pi; no dose reduction after starting phosphate-binding therapy (10/20)): 50.0% | Cmax ([1]; Day 1, TIW 80 mg, n = 6, mean (standard deviation)): 866 (366) [42.3] ng/ml | t1/2 ([1]; Day 1, TIW 120 mg, n = 3, mean (standard deviation)): 6.64 (1.08) [16.3] ^b h | Dose proportionality of Cmax and AUC ([1]; TIW regimens, single and multiple administrations): dose‐proportional changes in Cmax and AUC0–last | Cmax [1, 12]: 173 (NC) [NC] ng/ml | RAUC0–last [1, 12]: 1.29 (NC) [NC] | RCmax [1, 12]: 0.91 (NC) [NC] | Cmax ([1]; Week 3, TIW 8 mg, n = 1): 167 (NC) [NC] ng/ml | t1/2 ([1]; Week 3, TIW 8 mg, n = 1): 1.74 (NC) [NC] h | RAUC0–last ([1]; Week 3, TIW 8 mg, n = 1): 1.69 (NC) [NC] | RCmax ([1]; Week 3, TIW 8 mg, n = 1): 1.24 (NC) [NC] | t1/2 ([1]; Week 3, TIW 16 mg, n = 1): 5.27 (NC) [NC] h | RAUC0–last ([1]; Week 3, TIW 16 mg, n = 1): 1.39 (NC) [NC] | RCmax ([1]; Week 3, TIW 16 mg, n = 1): 0.96 (NC) [NC] | RAUC0–last ([1]; Week 3, TIW 24 mg, n = 1): 0.80 (NC) [NC] | RCmax ([1]; Week 3, TIW 24 mg, n = 1): 0.72 (NC) [NC] | RAUC0–last [1, 13]: 1.51 (0.47) [30.9] | RCmax [1, 13]: 0.88 (0.44) [49.7] | RAUC0–last [1, 14]: 1.36 (0.44) [32.5] | RCmax [1, 14]: 1.25 (0.36) [28.8] | AUC0–last [1, 15]: 7394 (3731) [50.5] ng·h/ml | RAUC0–last [1, 15]: 1.25 (0.25) [20.0] | RCmax [1, 15]: 0.96 (0.09) [9.1] | RAUC0–last [1, 16]: 1.27 (0.29) [23.1] | RCmax [1, 16]: 1.02 (0.34) [33.2] | RAUC0–last [1, 17]: 1.54 (0.64) [41.6] | RCmax [1, 17]: 1.05 (0.82) [78.2] | Renal excretion of unchanged futibatinib ([1]; in vivo): negligible | Dose proportionality of Cmax and AUC [2]: statistically dose‐proportional between 4 mg and 24 mg QD | AUC(0-inf) (clinical; 8 mg, Day 1, TIW 8 mg, n = 1): 0.39 µg·h/mL | AUC(0-inf) (clinical; 8 mg, Week 3, TIW 8 mg, n = 1): 0.663 µg·h/mL | AUC(0-t) (clinical; 8 mg, Day 1, TIW 8 mg, n = 1): 0.387 µg·h/mL | AUC(0-t) (clinical; 8 mg, Week 3, TIW 8 mg, n = 1): 0.653 µg·h/mL | Cmax (clinical; 8 mg, Day 1, TIW 8 mg, n = 1): 0.135 µg/mL | Tmax (clinical; 8 mg, Day 1, TIW 8 mg, n = 1, median): 1.87 h | half-life (clinical; 8 mg, t1/2, Day 1, TIW 8 mg, n = 1): 1.58 h | AUC(0-inf) (clinical; [18]): 1.02 µg·h/mL | AUC(0-inf) (clinical; 16 mg, Day 1, TIW 16 mg, n = 1): 1.19 µg·h/mL | AUC(0-inf) (clinical; [19]): 1.58 µg·h/mL | AUC(0-t) (clinical; [18]): 1.01 µg·h/mL | AUC(0-t) (clinical; 16 mg, Day 1, TIW 16 mg, n = 1): 1.14 µg·h/mL | AUC(0-t) (clinical; [19]): 1.58 µg·h/mL | Cmax (clinical; [18]): 0.235 µg/mL | Cmax (clinical; 16 mg, Day 1, TIW 16 mg, n = 1): 0.189 µg/mL | Cmax (clinical; [19]): 0.182 µg/mL | Tmax (clinical; 16 mg, Day 1, QD 16 mg, n = 3, median (minimum, maximum)): 0.95 h | Tmax (clinical; 16 mg, Day 1, TIW 16 mg, n = 1, median): 1.95 h | Tmax (clinical; 16 mg, Week 3, TIW 16 mg, n = 1, median): 2.9 h | half-life (clinical; 16 mg, t1/2, Day 1, QD 16 mg, n = 3, mean (standard deviation)): 2.68 h | half-life (clinical; 16 mg, t1/2, Day 1, TIW 16 mg, n = 1): 5.72 h | AUC(0-inf) (clinical; [20]): 0.983 µg·h/mL | AUC(0-inf) (clinical; [21]): 0.729 µg·h/mL | AUC(0-t) (clinical; [20]): 0.977 µg·h/mL | AUC(0-t) (clinical; [21]): 0.727 µg·h/mL | Cmax (clinical; [20]): 0.253 µg/mL | half-life (clinical; 20 mg, t1/2, Day 1, QD 20 mg, n = 7, mean (standard deviation)): 2.18 h | half-life (clinical; 20 mg, t1/2, Week 3 (day 21), QD 20 mg, n = 2, mean): 3.05 h | AUC(0-inf) (clinical; 24 mg, Day 1, TIW 24 mg, n = 1): 0.623 µg·h/mL | AUC(0-inf) (clinical; [22]): 0.502 µg·h/mL | AUC(0-t) (clinical; 24 mg, Day 1, TIW 24 mg, n = 1): 0.621 µg·h/mL | AUC(0-t) (clinical; [22]): 0.499 µg·h/mL | Cmax (clinical; 24 mg, Day 1, TIW 24 mg, n = 1): 0.204 µg/mL | Cmax (clinical; [22]): 0.146 µg/mL | Tmax (clinical; 24 mg, Day 1, TIW 24 mg, n = 1, median): 1.95 h | Tmax (clinical; 24 mg, Week 3, TIW 24 mg, n = 1, median): 3.98 h | half-life (clinical; 24 mg, t1/2, Day 1, TIW 24 mg, n = 1): 1.55 h | half-life (clinical; 24 mg, t1/2, Week 3, TIW 24 mg, n = 1): 1.47 h | AUC(0-inf) (clinical; 36 mg, Week 3, TIW 36 mg, n = 3, mean): 2.16 µg·h/mL | half-life (clinical; 36 mg, t1/2, Week 3, TIW 36 mg, n = 2, mean): 3.64 h | Susceptibility to resistance development [3]: low susceptibility to resistance development

From publication PMC9899610 (Cancer Science, 2022)
